Paper PMC12007285 (Microbial Cell Factories, 2025)
One block for each compound: values may come before it.

How the values were obtained:
[1] = test system: RsNpcB (reductase component of two-component p-nitrophenol monooxygenase RsNcpAB); assay: NADH/NADPH oxidation at […] nm; format: biochemical, Rhodococcus sp. 21391; conditions: 50 mM Tris–HCl pH 7.5, 25 °C
[2] = molecular target: p-nitrophenol monooxygenase oxidizing component RsNpcA (Rhodococcus sp. 21391) (UniProt Q6F4M8); assay: SEC

Compound: Cc1cc2nc3c(=O)[nH]c(=O)nc-3n(C[C@H](O)[C@H](O)[C@H](O)COP(=O)(O)OP(=O)(O)OC[C@H]3O[C@@H](n4cnc5c(N)ncnc54)[C@H](O)[C@@H]3O)c2cc1C [FAD]
Km ([1]; 200 μM NADH, FAD varied 0.2–1.0 μM): 0.11 ± 0.02 µM

Compound: Cc1cc2nc3c(=O)[nH]c(=O)nc-3n(C[C@H](O)[C@H](O)[C@H](O)COP(=O)(O)O)c2cc1C [FMN]
Km ([1]; 200 μM NADH, FMN varied 0.2–1.0 μM): 0.02 ± 0.007 µM

Compound: NC(=O)C1=CN([C@@H]2O[C@H](COP(=O)(O)OP(=O)(O)OC[C@H]3O[C@@H](n4cnc5c(N)ncnc54)[C@H](O)[C@@H]3O)[C@@H](O)[C@H]2O)C=CC1 [NADH]
Km ([1]; 20 μM FAD, NADH varied 20–220 μM): 45.5 ± 10.8 µM

Continued, values first:

Km ([1]; 20 μM FAD, NADPH varied 20–220 μM): 16.4 ± 4.62 µM
Compound: NC(=O)C1=CN([C@@H]2O[C@H](COP(=O)(O)OP(=O)(O)OC[C@H]3O[C@@H](n4cnc5c(N)ncnc54)[C@H](OP(=O)(O)O)[C@@H]3O)[C@@H](O)[C@H]2O)C=CC1 [NADPH]

stoichiometry N [2]: 4
Compound: p-nitrophenol monooxygenase oxidizing component RsNpcA (from UniProt Q6F4M8 1-528) (enzyme)
